PMC2923189, “An Oligopeptide Transporter of Mycobacterium tuberculosis Regulates Cytokine Release and Apoptosis of Infected Macrophages” (PLoS ONE, 2010)

How the values were obtained:
OppAMTB = target: T1, OppAMTB (Mycobacterium tuberculosis, UniProt P9WGU5)
T1 construct: gene oppA

[1] = target: OppA of M. tuberculosis (OppAMTB), substrate-binding polypeptide of the Rv1280c-Rv1283c peptide transporter, recombinant wild type (Mycobacterium tuberculosis) (UniProt P9WGU5); assay: radioligand binding
Sequence of OppA of M. tuberculosis (OppAMTB), substrate-binding polypeptide of the Rv1280c-Rv1283c peptide transporter, recombinant wild type (Mycobacterium tuberculosis) (P9WGU5 57-591): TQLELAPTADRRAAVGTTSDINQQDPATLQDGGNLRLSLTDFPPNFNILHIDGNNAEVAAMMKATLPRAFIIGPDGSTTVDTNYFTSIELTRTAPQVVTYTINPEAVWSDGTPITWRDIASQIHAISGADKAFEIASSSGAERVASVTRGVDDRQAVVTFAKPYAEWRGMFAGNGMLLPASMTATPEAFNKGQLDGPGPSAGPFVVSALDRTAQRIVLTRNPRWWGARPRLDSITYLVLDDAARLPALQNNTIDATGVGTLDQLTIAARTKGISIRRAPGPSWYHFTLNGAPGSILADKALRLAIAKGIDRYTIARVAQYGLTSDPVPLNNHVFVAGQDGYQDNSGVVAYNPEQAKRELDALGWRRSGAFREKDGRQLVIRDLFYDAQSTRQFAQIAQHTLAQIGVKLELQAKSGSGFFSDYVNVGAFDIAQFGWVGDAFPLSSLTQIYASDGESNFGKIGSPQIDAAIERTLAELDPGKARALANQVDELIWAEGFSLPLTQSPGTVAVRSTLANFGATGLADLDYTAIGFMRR

T1 sequence (P9WGU5 57-591): as above

Compound | % GSH binding with 1 mM competitor (OppAMTB) | amount bound at 1 mM GSH (pmol GSH/mg protein) [1]
N[C@@H](CS)C(=O)NCC(=O)O [cys-gly] | dipeptide glu-cys was a more efficient competitor of GSH binding than the peptide cys-gly | 
N[C@@H](CCC(=O)N[C@@H](CS)C(=O)O)C(=O)O [glu-cys] | dipeptide glu-cys was a more efficient competitor of GSH binding than the peptide cys-gly | 
glutathione (tripeptide) |  | 146
